Test results published in patent US5792457A, “Antibody recognizing endothelial cell ligand for leukocyte CR3” (priority 1995, dated 1998).

Tested on: recognition of C3bi by antibody 12.1F9
Experiment: Inhibition of binding of 12.1F9 to E^C3bi by peptides
Set-up: species or system human
Conditions: peptides 50 μg/ml
Text: Values are normalized to a control value of 100; data are expressed as the mean±SD of 6 experiments with duplicate wells.

With “native FHA: Filamentous hemagglutinin, 220kD surface associated protein of Bordetella pertussis (List Biologicals)” the “block of binding of 12.1F9 to E^C3bi (in words)” value was “blocked binding almost completely” and the Adherence index (normalized to control value of 100, 6 experiments) was 16 ± 16.
